Values of other authors, collected in paper PMC8924334, “Synthesis of [^11C]carbonyl-labeled cyclohexyl (5-(2-acetamidobenzo[d]thiazol-6-yl)-2-methylpyridin-3-yl)carbamate ([^11C-carbonyl]PK68) as a potential PET tracer for receptor-interacting protein 1 kinase” (EJNMMI Radiopharmacy and Chemistry, 2022).
Where two headings read alike, the source gives them in different places.

Tests used:
[1] = test system: melanoma (B16F10); set-up: method as in Hou et al. 2019; details: B16F10-bearing mice; ref Hou et al. 2019; cited from earlier work
[2] = test system: RIPK1; set-up: method as in Degterev et al. 2005; details: ref Degterev et al. 2005; cited from earlier work
[3] = test system: RIPK1; set-up: method as in Hou et al. 2019; details: human cell line; ref Hou et al. 2019; cited from earlier work
[4] = test system: RIPK1; set-up: method as in Hou et al. 2019; details: mouse cell line; ref Hou et al. 2019; cited from earlier work
[5] = test system: RIPK1; set-up: method as in Harris et al. 2017; details: human cells; ref Harris et al. 2017; cited from earlier work
[6] = test system: RIPK1; set-up: method as in Harris et al. 2017, 2019; details: rodents; ref Harris et al. 2017, 2019; cited from earlier work

Q: For `CN1C(=O)C(Cc2c[nH]c3ccccc23)NC1=S` (centres unmarked) [compound 1, Necrostatin-1], which “number of tumor metastases” value [1] is on record?
A: significant reduction in the number of tumor metastases

Q: And the EC50 [2]?
A: 490 nM

Q: For `CC(=O)Nc1nc2ccc(-c3cnc(C)c(NC(=O)OC4CCCCC4)c3)cc2s1` [PK68, cyclohexyl (5-(2-acetamidobenzo[d]thiazol-6-yl)-2-methylpyridin-3-yl)carbamate], which “number of tumor metastases” value [1] is on record?
A: significant reduction in the number of tumor metastases

Q: What about the IC50 [3] of the same compound?
A: 23 nM

Q: What about the IC50 [4] of the same compound?
A: 13 nM

Q: With `CN1C(=O)NC(Cc2c[nH]c3c(Cl)cccc23)C1=O` (centres unmarked) [compound 2, 7-Cl-O-Nec-1] as the compound, how does the EC50 [2] read?
A: 210 nM

Q: Which IC50 [5] does the source give for `CN1C(=O)[C@@H](NC(=O)c2n[nH]c(Cc3ccccc3)n2)COc2ccccc21` [compound 3] here?
A: 6.3 nM

Q: What about the IC50 [6] of the same compound?
A: > 1000 nM
